Experimental findings from patent publication US20050244472A1, “Intraocular drug delivery systems containing excipients with reduced toxicity and related methods” (Allergan, Inc., priority 2004, published 2005) are described below.

Where “and” joins values, the source holds several entries; their conditions need not be identical. Identical values can stand only once. Like-named read-outs stand apart in the source and are kept apart here.

Data set [1] concerns ARPE-19 cells. Kind of data set: MTT cell viability assay (mitochondrial dehydrogenase activity) after exposure to excipient. The source says:
Cell viability and cell morphology were examined to evaluate the toxicity of excipients on retinal pigment epithelial cells. The human retina cell line used in these experiments is the ARPE-19 cell line (human adult-derived retinal pigmented epithelial cells). […] They form tight-junctions with transepithelial resistance of monolayers (Dunn K C et al., supra). From a molecular standpoint, it appears that ARPE-19 express a huge pattern of genes similar to those expressed by human RPE from fresh explant which could account for their physiological function (Klimanskaya I. et al., “Derivation and comparative assessment of retinal pigment epithelium from human embryonic stem cells using transcriptomics”, Cloning and Stem Cells, 2004, 6(3):217-45).
ARPE-19 cells are widely used as a retinal model that resemble physiological properties of RPE cells. Similar methods of culturing ARPE-19 cells and cytotoxicity assays can be found in Yeung et al., “Cytotoxicity of triamcinolone on cultured human retinal pigment epithelial cells: comparison with dexamethasone and hydrocortisone”, Jpn J. Ophthalmol, 2004; 48:236-242. Cell viability and cell morphology were examined using conventional colormetric and visual methods. Viability and morphology measurements were obtained at 24 hours, 48 hours, and 72 hours after exposure to an excipient composition.
To assess cell viability, mitochondrial metabolism was quantified through conventional colorometric assays (i.e., the MTT assay). This colorimetric assay utilizes 3-(4,5-dimethylthiazol-2-yl)-2,5-diphenyltetrazolium bromide (MTT) and correlates mitochondrial metabolism and cell viability through measurement of dehydrogenase activity which converts a substrate into crystal. More specifically, the assay measures the activity of living cells through mitochondrial dehydrogenases. When dissolved in culture cell medium, MTT solution appears dark orange. Mitochondrial dehydrogenases of viable cells degrade MTT by cleaving the tetrazolium ring yielding to formation of a purple formazan crystal, which is insoluble in water. Crystals are subsequently dissolved in isopropanol solution. A resulting purple solution is spectrophotometrically measured. Cell viability is relative to amount of formazan and calculated as a percentage of remaining treated compared to non-treated cells.
Results from the MTT assay were expressed as a percentage of cell viability calculated using the following equation: % cell viability=ODtest/ODcontrol×100.
For each experiment, one concentration was performed in triplicate. Each point was spectrophotometrically read twice. Average of readings was calculated, then average from these 3 values was determined.
After 3 experiments were independently completed under the same conditions, a graph was plotted with cell viability expressed as a function of concentration (dose response) and for various incubation period (time course). The IC50 was then estimated based on the graphed data.
More specifically, cell density in 24-multiwell plates was observed on the day of the experiment to check if confluence of the cells was reached. Aliquots of MTT concentrated solutions were removed from a freezer at −20° C. and thawed at room temperature. Cell medium was warmed at 37° C. before use. Appropriated tubes for diluting compounds were prepared. Higher concentrations of each excipient agent was prepared. Serial dilution was then performed in cell medium (DMEM:F12+10% FBS).
Cell culture medium in the 24-well plate was removed using vacuum-pump. Cells were then stimulated with 0.5 ml final volume for each concentration of one given excipient agent. Distribution of the excipient-containing solution was performed using automated pipet-aid in sterile environment (under PSM) or not depending on time of compounds and duration of incubation.
After stimulation, cells were replaced in a CO2 incubator for the required time of exposure.
Background: Tetrazolium assays rely on reduction of a dye to a coloured formazan, in cell work by metabolically active cells.

The nature of data set [2]: Osmolarity of excipient-containing incubating solutions. The format is physicochemical. The protocol:
Osmolarity was measured using osmometer type 13/13DR from Roebling (Berlin, GR).
(§1) For each concentration of tested compound, pH and osmolarity parameters were measured.

The nature of data set [3]: pH of excipient-containing incubating solutions. The format is physicochemical. As to the method: as §1
Data set [4] concerns ARPE-19 cells. The format is cell-based. Further details: key to Cell Morphology score, Mean: 5 = basal (wild type) to 1 = lethal phenotype. As to the method: Cell morphology was visualized using light microscopy. Cell morphology observation using light microscopy permits determination of (i) cell number and density and (ii) whether or not cells in contact with an excipient agent display modified phenotype compared to a non-treated population of cells.
Cell morphology was analyzed in parallel by semi-quantitative scoring ranging from 5 to 1, from basal to lethal phenotype respectively, as shown in FIG. 23.
More specifically, cells were removed from an incubator for examination. Morphological shape of cells was visualized using a light microscope and CCD camera. Every 3 wells of a given concentration was observed through image analysis software. Then, a representative photograph describing the average appearance of cells was saved. The supernatant was either, kept for further predefined experiments to perform, or removed using vacuum-pump.
Resulting semi-quantitative scoring is represented as a function of time course and dose response. Score 5: wild type phenotype of non-treated cells, 100% confluent adherent cells. This phenotype very much vary following post-seeding time. For example, at confluence ARPE-19 cells at 1 day appear well defined with visible outer membrane and dark grey cytoplasm. After 3 days of confluence, limits between cells become less visible and cells adopt a more hexagonal shape and constitute an epithelium-like uniform dense structure. Score 4: density<100%. Cell shape has changed, some spaces are present between cells, few cells possibly detached. Score 3: […]. Spaces are sometimes present among cells, areas appears confluent while in others, cells detached. General cell shape starts showing non negligible alterations. Score 2: Cell density<50%. Cells adopt exclusively stressed appearance, presence of mass dead floating cells. Score 1: Cell density<10%. Presence of almost exclusively dead cells.
Based on quotation, each condition of the applied compound was given a score which allow to a morphology evolution profile to be prepared, ie. cell morphology as a function of compound concentration and time of exposure. […]

[5] abbreviates: 0.1% excipient dilution in culture medium.
Where [6] appears, read: 0.5% excipient dilution in culture medium.
[7] abbreviates: 1% excipient dilution in culture medium.
Setting [8] is: 5% excipient dilution in culture medium.
Setting [9] is: 10% excipient dilution in culture medium.
Where [10] appears, read: 20% excipient dilution in culture medium.
The mark [11] stands for this setting: 0.01% excipient dilution in culture medium.
Where [12] appears, read: 0.02% excipient dilution in culture medium.
Where [13] appears, read: 0.04% excipient dilution in culture medium.
Where [14] appears, read: 0.06% excipient dilution in culture medium.
[15] abbreviates: 0.08% excipient dilution in culture medium.

“hydroxypropyl beta-cyclodextrin [Kleptose]”: the cell survival entry in the data set with ARPE-19 cells [1] (5% (w/v), 24 hour time point) is reported as “about 20%”. The mOsm worked out at 309 mOsm in data set [2] (setting [5]); 317 mOsm in data set [2] (setting [6]); 325 mOsm in data set [2] (setting [7]); 375 mOsm in data set [2] (setting [8]); 459 mOsm in data set [2] (setting [9]); 635 mOsm in data set [2] (setting [10]). The pH in data set [3] (setting [5]) was found to be 7.6; in data set [3] (setting [6]), 7.6; in data set [3] (setting [7]), 7.5; in data set [3] (setting [8]), 7.5; in data set [3] (setting [9]) it was 7.5; in data set [3] (setting [10]), 7.6.

Regarding “hydroxypropyl gamma-cyclodextrin [Cavasol]”, in the data set with ARPE-19 cells [1], the “effect on both cell parameters (viability and morphology)” value is “no measurable effect”. In addition, in the data set with ARPE-19 cells [1] (0.05 to 10%, recovery after 24 h), the “percentage of living cells” value is given as above 80%. For the same substance, in the data set with ARPE-19 cells [1] (0.1% (w/v), 24 hour, 48 hour and 72 hour time points), the “reduction of cell survival” value is recorded as at most 10%. Moreover, the “IC50 (50% cell viability inhibition)” value in the data set on ARPE-19 cells [1] (deduced from viability graphs, incubation 24-72 h) is recorded as “not possible to determine the IC50”.

As for hydroxypropylmethyl cellulose [HPMC], in the data set on ARPE-19 cells [1], the “diminution of cell viability” value is 20-40% and the “percentage of cell viability” value is listed as 60-80%.

As to poloxamer 407nf, the “increase in cell viability up to” value with ARPE-19 cells [1] was “up to 200%”.

As to polysorbate 80, the “Cell Morphology score” value was 4 (Score 4: density<100%) in the data set with ARPE-19 cells [4] (0.01% Tween80, 24 Hours); 4 (Score 4: density<100%) in the data set on ARPE-19 cells [4] (0.01% Tween80, 48 Hours); 4 (Score 4: density<100%) in the data set with ARPE-19 cells [4] (0.01% Tween80, 72 Hours); 3 (Score 3: 80%<Cell density<40%) and 4 (Score 4: density<100%) with ARPE-19 cells [4] (0.02% Tween80, 24 Hours); 3 (Score 3: 80%<Cell density<40%) and 4 (Score 4: density<100%) with ARPE-19 cells [4] (0.02% Tween80, 48 Hours); 3 (Score 3: 80%<Cell density<40%) and 4 (Score 4: density<100%) with ARPE-19 cells [4] (0.02% Tween80, 72 Hours). The “Cell Morphology score” value with ARPE-19 cells [4] (0.04% Tween80, 24 Hours) was 3 (Score 3: 80%<Cell density<40%) and 4 (Score 4: density<100%); in the data set on ARPE-19 cells [4] (0.04% Tween80, 48 Hours) it was 3 (Score 3: 80%<Cell density<40%); in the data set with ARPE-19 cells [4] (0.04% Tween80, 72 Hours), 3 (Score 3: 80%<Cell density<40%); in the data set on ARPE-19 cells [4] (0.06% Tween80, 24 Hours), 3 (Score 3: 80%<Cell density<40%); in the data set with ARPE-19 cells [4] (0.06% Tween80, 48 Hours), 3 (Score 3: 80%<Cell density<40%); with ARPE-19 cells [4] (0.06% Tween80, 72 Hours), 3 (Score 3: 80%<Cell density<40%). Besides, the “Cell Morphology score” value is 2 (Score 2: Cell density<50%) and 3 (Score 3: 80%<Cell density<40%) with ARPE-19 cells [4] (0.08% Tween80, 24 Hours); 2 (Score 2: Cell density<50%) and 1 (Score 1: Cell density<10%) in the data set on ARPE-19 cells [4] (0.08% Tween80, 48 Hours); 1 (Score 1: Cell density<10%) with ARPE-19 cells [4] (0.08% Tween80, 72 Hours); 1 (Score 1: Cell density<10%) in the data set with ARPE-19 cells [4] (0.1% Tween80, 24 Hours); 1 (Score 1: Cell density<10%) with ARPE-19 cells [4] (0.1% Tween80, 48 Hours); 1 (Score 1: Cell density<10%) in the data set with ARPE-19 cells [4] (0.1% Tween80, 72 Hours). The “Cell Morphology score, Mean” value with ARPE-19 cells [4] (0.01% Tween80, 24 Hours) was 4.0; with ARPE-19 cells [4] (0.01% Tween80, 48 Hours), 4.0; in the data set on ARPE-19 cells [4] (0.01% Tween80, 72 Hours), 4.0; in the data set on ARPE-19 cells [4] (0.02% Tween80, 24 Hours) it was 3.3; in the data set on ARPE-19 cells [4] (0.02% Tween80, 48 Hours), 3.3; with ARPE-19 cells [4] (0.02% Tween80, 72 Hours), 3.7. The “Cell Morphology score, Mean” value in the data set with ARPE-19 cells [4] (0.04% Tween80, 24 Hours) came to 3.3; with ARPE-19 cells [4] (0.04% Tween80, 48 Hours) it was 3.0; with ARPE-19 cells [4] (0.04% Tween80, 72 Hours), 3.0; in the data set on ARPE-19 cells [4] (0.06% Tween80, 24 Hours) it was 3.0; in the data set on ARPE-19 cells [4] (0.06% Tween80, 48 Hours) it was 3.0; in the data set with ARPE-19 cells [4] (0.06% Tween80, 72 Hours) it was 3.0. The “Cell Morphology score, Mean” value in the data set on ARPE-19 cells [4] (0.08% Tween80, 24 Hours) came to 2.3; with ARPE-19 cells [4] (0.08% Tween80, 48 Hours), 1.7; in the data set on ARPE-19 cells [4] (0.08% Tween80, 72 Hours), 1.0; with ARPE-19 cells [4] (0.1% Tween80, 24 Hours) it was 1.0; in the data set on ARPE-19 cells [4] (0.1% Tween80, 48 Hours), 1.0; with ARPE-19 cells [4] (0.1% Tween80, 72 Hours) it was 1.0. Further, the “cells floating in a typical round dead shape” value in the data set with ARPE-19 cells [4] (0.1%) was “over 95%”. Besides, in the data set on ARPE-19 cells [4] (ARPE-19 cells, Table 3 summary), the “Morphology limit concentration (%)” value was determined as 0.06%. Further, in the data set with ARPE-19 cells [4] (morphology), the “critical limit for lethality (injured cell aspect)” value is listed as 0.06%. Besides, the “overall cytotoxicity to ARPE-19 cells (conclusion in words)” value in the data set with ARPE-19 cells [1] is given as “barely tolerated”. For the same substance, the cell survival entry in the data set on ARPE-19 cells [1] (0.1% (w/v)) is listed as “substantially zero”. Besides, the mOsm in data set [2] (setting [11]) came out at 310 mOsm; in data set [2] (setting [12]), 307 mOsm; in data set [2] (setting [13]) it was 313 mOsm; in data set [2] (setting [14]), 346 mOsm; in data set [2] (setting [15]), 390 mOsm; in data set [2] (setting [5]), 523 mOsm. In addition, the pH is on record as 7.5 in data set [3] (setting [11]); 7.6 in data set [3] (setting [12]); 7.5 in data set [3] (setting [13]); 7.5 in data set [3] (setting [14]); 7.5 in data set [3] (setting [15]); 7.6 in data set [3] (setting [5]).

Consider sodium carboxymethylcellulose [CMC], for which the “percentage of cell viability” value in the data set on ARPE-19 cells [1] is reported as 80-100%.

With “sulfobutyl ether 4 beta-cyclodextrin [Captisol]”, in the data set on ARPE-19 cells [1], the “Cell Viability, Mean (%)” value is recorded as 40%. Moreover, the “overall cytotoxicity to ARPE-19 cells (conclusion in words)” value in the data set on ARPE-19 cells [1] is recorded as “mild cytotoxicity”. In addition, the mOsm in data set [2] (setting [5]) was found to be 310 mOsm; in data set [2] (setting [6]), 318 mOsm; in data set [2] (setting [7]) it was 333 mOsm; in data set [2] (setting [8]), 408 mOsm; in data set [2] (setting [9]), 518 mOsm; in data set [2] (setting [10]), 710 mOsm. Besides, the pH in data set [3] (setting [5]) is reported as 7.6; in data set [3] (setting [6]), 7.6; in data set [3] (setting [7]), 7.6; in data set [3] (setting [8]), 7.6; in data set [3] (setting [9]), 7.7; in data set [3] (setting [10]), 7.7.
